In ChEMBL document CHEMBL3593229, “Identification of a potent 5-phenyl-thiazol-2-ylamine-based inhibitor of FLT3 with activity against drug resistance-conferring point mutations” (Eur J Med Chem, 2015):

What was measured:
[1] = system: Receptor-type tyrosine-protein kinase FLT3 (Homo sapiens), P36888 [UNDEFINED MUTATION]; conditions: MOLM-13
Description: Inhibition of FLT3 ITD heterozygous mutant in human MOLM-13 cells assessed as cell growth inhibition after 72 hrs by MTS assay

[2] = Oral bioavailability in Sprague-Dawley rat at 10 mg/kg; format: ADME, organism-based; conditions: in vivo
Aurora kinase A = target: T1, Aurora kinase A (Homo sapiens, UniProt O14965); assay: biochemical
T1 sequence (O14965 whole entry): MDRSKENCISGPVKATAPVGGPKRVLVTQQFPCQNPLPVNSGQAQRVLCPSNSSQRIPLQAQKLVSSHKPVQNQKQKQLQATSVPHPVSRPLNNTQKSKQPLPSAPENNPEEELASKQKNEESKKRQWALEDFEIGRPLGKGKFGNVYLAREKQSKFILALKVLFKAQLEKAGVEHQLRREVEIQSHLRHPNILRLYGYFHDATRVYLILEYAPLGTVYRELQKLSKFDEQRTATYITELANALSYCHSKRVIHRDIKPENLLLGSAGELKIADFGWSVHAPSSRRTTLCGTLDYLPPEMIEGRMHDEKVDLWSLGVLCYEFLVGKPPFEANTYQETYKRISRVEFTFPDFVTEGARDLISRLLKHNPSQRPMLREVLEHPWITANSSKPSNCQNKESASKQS
Description: Inhibition of recombinant GST-tagged Aurora-A kinase domain (S123 to S401) (unknown origin) expressed in insect Sf9 cells using tetra(LRRASLG) peptide as substrate after 90 mins by Kinase-Glo assay

[3] = target: Vascular endothelial growth factor receptor 2 (Homo sapiens, UniProt P35968); assay: biochemical; format: cell-based, Sf9
Description: Inhibition of recombinant GST-tagged VEGFR2 kinase domain (V789 to V1356) (unknown origin) expressed in insect Sf9 cells using polyGlu4:Tyr peptide as substrate after 120 mins by Kinase-Glo assay

[4] = AUC (0 to infinity) in Sprague-Dawley rat at 10 mg/kg, po; format: ADME, organism-based; parameters: dose 10 mg/kg, time infinity, route oral; conditions: in vivo
[5] = target: T2, Receptor-type tyrosine-protein kinase FLT3 (Homo sapiens, UniProt P36888); assay: biochemical; format: cell-based, Sf9
T2 sequence (P36888 whole entry): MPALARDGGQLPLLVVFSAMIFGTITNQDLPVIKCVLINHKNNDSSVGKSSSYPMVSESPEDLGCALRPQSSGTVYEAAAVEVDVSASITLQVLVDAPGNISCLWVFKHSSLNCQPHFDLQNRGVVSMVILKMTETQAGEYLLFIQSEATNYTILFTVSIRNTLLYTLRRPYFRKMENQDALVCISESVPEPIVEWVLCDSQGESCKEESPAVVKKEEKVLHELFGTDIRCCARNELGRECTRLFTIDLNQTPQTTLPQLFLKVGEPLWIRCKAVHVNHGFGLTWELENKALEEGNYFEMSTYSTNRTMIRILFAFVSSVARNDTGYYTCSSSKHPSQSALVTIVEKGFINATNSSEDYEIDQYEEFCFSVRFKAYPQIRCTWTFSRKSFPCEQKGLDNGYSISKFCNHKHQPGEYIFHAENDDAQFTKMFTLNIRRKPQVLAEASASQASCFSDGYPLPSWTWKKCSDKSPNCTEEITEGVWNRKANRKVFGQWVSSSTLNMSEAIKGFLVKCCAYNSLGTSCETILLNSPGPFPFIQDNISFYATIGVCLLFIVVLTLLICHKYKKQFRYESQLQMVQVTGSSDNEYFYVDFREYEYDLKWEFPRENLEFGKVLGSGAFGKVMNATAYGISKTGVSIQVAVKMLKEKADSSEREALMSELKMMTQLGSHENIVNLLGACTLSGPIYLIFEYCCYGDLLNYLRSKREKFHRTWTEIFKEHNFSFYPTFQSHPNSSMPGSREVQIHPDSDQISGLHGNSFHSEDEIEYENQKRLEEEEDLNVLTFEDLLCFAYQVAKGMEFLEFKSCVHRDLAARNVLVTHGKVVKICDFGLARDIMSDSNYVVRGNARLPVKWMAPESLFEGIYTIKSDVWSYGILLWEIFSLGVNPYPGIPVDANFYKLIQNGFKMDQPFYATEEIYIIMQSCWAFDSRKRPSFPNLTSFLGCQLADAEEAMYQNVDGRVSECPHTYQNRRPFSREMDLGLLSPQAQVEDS
Description: Inhibition of wild type GST-tagged FLT3 kinase domain (Y567 to S993) (unknown origin) expressed in baculovirus infected insect Sf9 cells using Her2 peptide as substrate after 4 hrs by Kinase-Glo assay

Chain of Vascular endothelial growth factor receptor 2 (P35968 whole entry): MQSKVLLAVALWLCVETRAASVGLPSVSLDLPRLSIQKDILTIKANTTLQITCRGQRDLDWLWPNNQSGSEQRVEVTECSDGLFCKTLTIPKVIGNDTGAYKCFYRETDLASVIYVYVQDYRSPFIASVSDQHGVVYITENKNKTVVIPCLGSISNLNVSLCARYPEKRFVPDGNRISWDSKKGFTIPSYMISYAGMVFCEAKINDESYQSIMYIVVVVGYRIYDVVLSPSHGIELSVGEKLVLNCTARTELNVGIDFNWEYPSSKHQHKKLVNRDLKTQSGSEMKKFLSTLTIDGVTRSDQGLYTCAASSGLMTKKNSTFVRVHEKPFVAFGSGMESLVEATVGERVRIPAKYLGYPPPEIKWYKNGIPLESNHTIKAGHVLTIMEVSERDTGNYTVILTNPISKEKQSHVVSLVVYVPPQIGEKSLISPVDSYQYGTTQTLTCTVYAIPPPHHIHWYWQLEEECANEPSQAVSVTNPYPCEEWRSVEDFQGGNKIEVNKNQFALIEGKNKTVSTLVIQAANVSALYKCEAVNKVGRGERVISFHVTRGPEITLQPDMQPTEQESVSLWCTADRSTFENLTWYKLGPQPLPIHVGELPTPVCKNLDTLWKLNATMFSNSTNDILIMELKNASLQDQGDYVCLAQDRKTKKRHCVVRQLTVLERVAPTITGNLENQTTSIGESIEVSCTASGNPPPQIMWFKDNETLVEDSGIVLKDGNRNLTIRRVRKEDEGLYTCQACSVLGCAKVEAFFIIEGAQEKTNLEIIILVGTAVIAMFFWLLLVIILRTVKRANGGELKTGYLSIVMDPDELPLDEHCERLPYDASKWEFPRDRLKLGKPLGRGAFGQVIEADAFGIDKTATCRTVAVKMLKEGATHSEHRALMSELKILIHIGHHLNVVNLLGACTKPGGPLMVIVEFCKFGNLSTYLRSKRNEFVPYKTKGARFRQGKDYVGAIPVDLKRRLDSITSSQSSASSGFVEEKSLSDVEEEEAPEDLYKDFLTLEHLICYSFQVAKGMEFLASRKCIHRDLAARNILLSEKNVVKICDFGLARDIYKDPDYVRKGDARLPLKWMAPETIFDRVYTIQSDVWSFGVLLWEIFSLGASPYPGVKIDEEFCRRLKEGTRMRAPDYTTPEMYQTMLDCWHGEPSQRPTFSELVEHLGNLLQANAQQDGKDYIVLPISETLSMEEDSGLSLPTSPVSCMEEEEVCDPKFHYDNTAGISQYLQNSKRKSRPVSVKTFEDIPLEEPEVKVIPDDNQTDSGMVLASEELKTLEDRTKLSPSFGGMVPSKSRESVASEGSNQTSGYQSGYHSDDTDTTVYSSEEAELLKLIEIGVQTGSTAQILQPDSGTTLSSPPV

GI50 [1]	bioavailability [2]	IC50 (Aurora kinase A)	IC50 [3]	AUC(0-inf) [4]	IC50 [5]	SMILES
1 nM	10%	56 nM	15 nM	313 ng·h/mL	10 nM	Cc1nc(Nc2ncc(-c3ccc(NC(=O)Nc4cc(C)on4)cc3)s2)cc(N2CCN(C)CC2)n1
24 nM		270 nM	31 nM		20 nM	Cc1nc(Nc2ncc(-c3ccc(NC(=O)Nc4cccc(Cl)c4)cc3)s2)cc(N2CCNCC2)n1
3 nM		320 nM	120 nM	66 ng·h/mL	83 nM	CCN1CCN(c2cc(Nc3ncc(-c4ccc(NC(=O)OCc5ccccc5)cc4)s3)nc(C)n2)CC1
19 nM		140 nM	> 1000 nM		850 nM	CCN1CCN(c2cc(Nc3ncc(-c4ccc(NC(=O)c5ccccc5)cc4)s3)nc(C)n2)CC1
210 nM		25 nM	370 nM		580 nM	Cc1cc(NC(=O)Nc2ccc(-c3cnc(NC(=O)c4ccc(OCCN5CCOCC5)cc4)s3)cc2)no1
2 nM		36 nM	15 nM		33 nM	CCN1CCN(c2cc(Nc3ncc(-c4ccc(NC(=O)Nc5cc(C6CC6)on5)cc4)s3)nc(C)n2)CC1
3 nM						CCc1cc(NC(=O)Nc2ccc(-c3cnc(Nc4cc(N5CCC(N)C5)nc(C)n4)s3)cc2)no1 (centres undefined)
140 nM		43 nM	170 nM		520 nM	CCN1CCN(c2cc(Nc3ncc(-c4ccc(NS(=O)(=O)c5ccccc5)cc4)s3)nc(C)n2)CC1
3 nM	18%	41 nM	10 nM	632 ng·h/mL	49 nM	CCc1cc(NC(=O)Nc2ccc(-c3cnc(Nc4cc(N5CCN(C)CC5)nc(C)n4)s3)cc2)no1
24 nM		> 10000 nM	160 nM		79 nM	Cc1nc(Nc2ncc(-c3ccc(NC(=O)Nc4ccccc4)cc3)s2)cc(N2CCN(C)CC2)n1
9 nM		95 nM	43 nM		320 nM	CCN1CCN(c2cc(Nc3ncc(-c4ccc(NC(=O)Nc5ccc(Cl)cc5)cc4)s3)nc(C)n2)CC1
14 nM		38 nM	55 nM		22 nM	CCCCc1cc(NC(=O)Nc2ccc(-c3cnc(Nc4cc(N5CCN(C)CC5)nc(C)n4)s3)cc2)no1
16 nM		150 nM	53 nM		73 nM	Cc1nc(Nc2ncc(-c3ccc(NC(=O)Nc4ccccc4)cc3)s2)cc(N2CCC(N)CC2)n1
